According to PubChem BioAssay (NCI):
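Where inhibition never reached the appropriate level, the endpoint shown equals the highest concentration tested. Otherwise, values were interpolated linearly from a five-concentration, 48-hour dose response in 96-well plates. At the TGI there is no net growth.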

Assays:
Experiment in all cases: growth of human tumour cells (NCI), 48 h
[1] = test system: OVCAR-8 ovarian
[2] = test system: DU-145 prostate
[3] = test system: T-47D breast
[4] = test system: PC-3 prostate
[5] = test system: A498 renal
[6] = test system: SR leukemia
[7] = test system: EKVX NSCLC
[8] = test system: M14 melanoma
[9] = test system: BT-549 breast
[10] = test system: LOX IMVI melanoma
[11] = test system: SW-620 colon
[12] = test system: HCT-116 colon
[13] = test system: OVCAR-3 ovarian
[14] = test system: UACC-257 melanoma
[15] = test system: A549 NSCLC
[16] = test system: HS 578T breast
[17] = test system: COLO 205 colon
[18] = test system: SF-268 CNS
[19] = test system: UO-31 renal
[20] = test system: MALME-3M melanoma
[21] = test system: RPMI-8226 leukemia
[22] = test system: SN12C renal
[23] = test system: 786-0 renal
[24] = test system: SK-MEL-2 melanoma
[25] = test system: HL-60(TB) leukemia
[26] = test system: NCI-H460 lung
[27] = test system: U251 CNS
[28] = test system: OVCAR-5 ovarian
[29] = test system: SNB-19 CNS
[30] = test system: MDA-MB-435
[31] = test system: MDA-N
[32] = test system: SK-MEL-5 melanoma
[33] = test system: SK-OV-3 ovarian
[34] = test system: SF-539 CNS
[35] = test system: HCC-2998 colon
[36] = test system: IGROV1 ovarian
[37] = test system: SNB-75 CNS
[38] = test system: CAKI-1 renal
[39] = test system: NCI/ADR-RES ovarian
[40] = test system: HCT-15 colon
[41] = test system: MOLT-4 leukemia
[42] = test system: KM12 colon
[43] = test system: UACC-62 melanoma
[44] = test system: HT29 colon
[45] = test system: NCI-H522 lung
[46] = test system: MCF7 breast
[47] = test system: HOP-92 NSCLC
[48] = test system: OVCAR-4 ovarian
[49] = test system: TK-10 renal
[50] = test system: RXF 393 renal
[51] = test system: SK-MEL-28 melanoma
[52] = test system: K-562 leukemia
[53] = test system: NCI-H226 lung
[54] = test system: MDA-MB-231 breast
[55] = test system: CCRF-CEM leukemia
[56] = test system: HOP-62 NSCLC
[57] = test system: ACHN renal
[58] = test system: SF-295 CNS
[59] = test system: NCI-H23 lung

Nc1[nH]c(=S)c2c(N)n[nH]c2c1C(=O)Nc1ccc(Cl)cc1 gave a TGI [1] greater than 100 µM, a TGI [2] greater than 100 µM and a TGI [3] greater than 100 µM. The TGI [4] was greater than 100 µM, the TGI [5] was greater than 100 µM and the TGI [6] was greater than 100 µM. The TGI [7] was greater than 100 µM, the TGI [8] was greater than 100 µM and the TGI [9] was greater than 100 µM. It also gave a TGI [10] of 40.1 µM, a TGI [11] greater than 100 µM and a TGI [12] greater than 100 µM. The TGI [13] was greater than 100 µM, the TGI [14] was greater than 100 µM and the TGI [15] was greater than 100 µM. The TGI [16] was greater than 100 µM, the TGI [17] was greater than 100 µM and the TGI [18] was greater than 100 µM. The TGI [19] was greater than 100 µM, the TGI [20] was greater than 100 µM and the TGI [21] was greater than 100 µM. It also gave a TGI [22] greater than 100 µM, a TGI [23] greater than 100 µM and a TGI [24] greater than 100 µM. It also gave a TGI [25] greater than 100 µM, a TGI [26] greater than 100 µM and a TGI [27] greater than 100 µM. The TGI [28] was greater than 100 µM, the TGI [29] was greater than 100 µM and the TGI [30] was greater than 100 µM. It also gave a TGI [31] greater than 100 µM, a TGI [32] greater than 100 µM and a TGI [33] greater than 100 µM. The TGI [34] was greater than 100 µM, the TGI [35] was greater than 100 µM and the TGI [36] was greater than 100 µM. For the same compound, the TGI [37] was greater than 100 µM, the TGI [38] was greater than 100 µM and the TGI [39] was greater than 100 µM. For the same compound, the TGI [40] was greater than 100 µM, the TGI [41] was greater than 100 µM and the TGI [42] was greater than 100 µM. The TGI [43] was greater than 100 µM, the TGI [44] was greater than 100 µM and the TGI [45] was greater than 100 µM. The TGI [46] was greater than 100 µM, the TGI [47] was greater than 100 µM and the TGI [48] was greater than 100 µM. The TGI [49] was greater than 100 µM, the TGI [50] was greater than 100 µM and the TGI [51] was greater than 100 µM. The TGI [52] was greater than 100 µM, the TGI [53] was greater than 100 µM and the TGI [54] was greater than 100 µM.

Nc1ncnc2nn(C3OC(CO)C(O)C3O)nc12 (stereo unspecified) gave a TGI [1] greater than 100 µM, a TGI [2] greater than 45.4 µM and a TGI [3] greater than 44.5 µM. For the same compound, the TGI [4] was greater than 67.6 µM, the TGI [5] was greater than 59.6 µM and the TGI [6] was 16 µM. It also gave a TGI [7] greater than 100 µM, a TGI [8] greater than 62.8 µM and a TGI [9] greater than 100 µM. For the same compound, the TGI [10] was 23 µM, the TGI [11] was greater than 100 µM and the TGI [12] was 39.1 µM. The TGI [13] was greater than 41.1 µM, the TGI [14] was greater than 87.1 µM and the TGI [15] was greater than 64 µM. For the same compound, the TGI [16] was greater than 100 µM, the TGI [17] was 15.8 µM and the TGI [18] was greater than 100 µM. It also gave a TGI [19] of 49 µM, a TGI [20] greater than 100 µM and a TGI [21] of 26.5 µM. The TGI [22] was greater than 68.5 µM, the TGI [23] was greater than 100 µM and the TGI [24] was 17.5 µM. It also gave a TGI [25] of 23.6 µM, a TGI [26] of 25.3 µM and a TGI [27] greater than 81.6 µM. The TGI [28] was greater than 95.3 µM, the TGI [29] was 99.1 µM and the TGI [55] was greater than 67 µM. The TGI [30] was greater than 90 µM, the TGI [31] was greater than 82.6 µM and the TGI [32] was 39.7 µM. The TGI [33] was 16.6 µM, the TGI [34] was 58.5 µM and the TGI [35] was 32.8 µM. It also gave a TGI [56] of 46.5 µM, a TGI [36] of 39.1 µM and a TGI [37] of 54.1 µM. For the same compound, the TGI [57] was 49.3 µM, the TGI [38] was greater than 100 µM and the TGI [58] was greater than 89.3 µM. The TGI [59] was 67.9 µM, the TGI [39] was greater than 86.8 µM and the TGI [40] was 45.3 µM. It also gave a TGI [41] greater than 66.2 µM, a TGI [42] greater than 100 µM and a TGI [43] greater than 100 µM. The TGI [44] was greater than 100 µM, the TGI [45] was greater than 100 µM and the TGI [46] was greater than 62.3 µM. The TGI [47] was greater than 100 µM, the TGI [48] was greater than 100 µM and the TGI [49] was greater than 35.4 µM. For the same compound, the TGI [50] was greater than 23.1 µM, the TGI [51] was greater than 100 µM and the TGI [52] was greater than 100 µM. It also gave a TGI [53] of 40.5 µM and a TGI [54] greater than 25.2 µM.

Work on Oc1c2c(c(O)c3ccccc13)C1(N=N2)c2ccccc2Oc2ccccc21 yielded a TGI [1] of 11.1 µM, a TGI [2] of 37 µM and a TGI [3] of 47.8 µM. It also gave a TGI [4] of 28.5 µM, a TGI [5] of 35.7 µM and a TGI [6] greater than 100 µM. For the same compound, the TGI [7] was 28.3 µM, the TGI [8] was 26.1 µM and the TGI [9] was 23.5 µM. For the same compound, the TGI [10] was 7.31 µM, the TGI [11] was 18.1 µM and the TGI [12] was 17.7 µM. The TGI [13] was 10.8 µM, the TGI [14] was 19.1 µM and the TGI [15] was 66.5 µM. The TGI [16] was 41.5 µM, the TGI [17] was 28 µM and the TGI [18] was 25.5 µM. For the same compound, the TGI [19] was 23.3 µM, the TGI [20] was 9.28 µM and the TGI [21] was 14.7 µM. The TGI [22] was 27 µM, the TGI [23] was 11.5 µM and the TGI [24] was 27.4 µM. The TGI [25] was 62.1 µM, the TGI [26] was 46.3 µM and the TGI [27] was 16.4 µM. It also gave a TGI [28] of 26.5 µM, a TGI [29] of 32.4 µM and a TGI [55] of 29.9 µM. The TGI [30] was 17.9 µM, the TGI [31] was 21.8 µM and the TGI [32] was 27.2 µM. The TGI [33] was 31.4 µM, the TGI [34] was 20.2 µM and the TGI [35] was 38.7 µM. The TGI [56] was 38.5 µM, the TGI [36] was 10.2 µM and the TGI [37] was 33.5 µM. The TGI [57] was 16 µM, the TGI [38] was 26.5 µM and the TGI [58] was 33.3 µM. It also gave a TGI [59] greater than 100 µM, a TGI [39] of 33.4 µM and a TGI [40] of 9.15 µM. For the same compound, the TGI [41] was greater than 100 µM, the TGI [42] was 38.6 µM and the TGI [43] was 25.1 µM. The TGI [44] was 30.2 µM, the TGI [45] was 5.13 µM and the TGI [46] was 13.6 µM. For the same compound, the TGI [47] was 31 µM, the TGI [49] was 23 µM and the TGI [50] was 4.65 µM. For the same compound, the TGI [51] was 28.8 µM, the TGI [52] was greater than 100 µM and the TGI [54] was 32.4 µM.

Work on CCCC#CCOC(=O)c1cc([N+](=O)[O-])cc([N+](=O)[O-])c1 yielded a TGI [1] greater than 100 µM, a TGI [2] greater than 100 µM and a TGI [3] greater than 100 µM. The TGI [4] was greater than 100 µM, the TGI [5] was greater than 100 µM and the TGI [6] was greater than 100 µM. It also gave a TGI [7] greater than 100 µM, a TGI [8] greater than 100 µM and a TGI [9] greater than 100 µM. It also gave a TGI [10] greater than 100 µM, a TGI [11] greater than 100 µM and a TGI [12] greater than 100 µM. For the same compound, the TGI [13] was greater than 100 µM, the TGI [14] was greater than 100 µM and the TGI [15] was greater than 100 µM. The TGI [16] was greater than 100 µM, the TGI [17] was greater than 100 µM and the TGI [18] was greater than 100 µM. It also gave a TGI [19] greater than 100 µM, a TGI [20] of 69.1 µM and a TGI [21] greater than 100 µM. For the same compound, the TGI [22] was greater than 100 µM, the TGI [23] was greater than 100 µM and the TGI [24] was greater than 100 µM. The TGI [25] was greater than 100 µM, the TGI [26] was greater than 100 µM and the TGI [27] was greater than 100 µM. The TGI [28] was greater than 100 µM, the TGI [29] was greater than 100 µM and the TGI [55] was greater than 100 µM. It also gave a TGI [30] greater than 100 µM, a TGI [31] greater than 100 µM and a TGI [32] greater than 100 µM. It also gave a TGI [33] greater than 100 µM, a TGI [34] greater than 100 µM and a TGI [35] greater than 100 µM. For the same compound, the TGI [56] was greater than 100 µM, the TGI [36] was greater than 100 µM and the TGI [37] was greater than 100 µM. The TGI [57] was greater than 100 µM, the TGI [38] was greater than 100 µM and the TGI [58] was greater than 100 µM. For the same compound, the TGI [59] was greater than 100 µM, the TGI [39] was greater than 100 µM and the TGI [40] was greater than 100 µM. The TGI [41] was greater than 100 µM, the TGI [42] was greater than 100 µM and the TGI [43] was greater than 100 µM. For the same compound, the TGI [44] was greater than 100 µM, the TGI [45] was greater than 100 µM and the TGI [46] was greater than 100 µM. The TGI [47] was greater than 100 µM, the TGI [49] was greater than 100 µM and the TGI [51] was greater than 100 µM. The TGI [52] was greater than 100 µM and the TGI [54] was greater than 100 µM.
